Biological target: T1, PDE4B (Homo sapiens, UniProt Q07343)
T1 construct: hex-histidine (His6) (N); made in house
Test: Novel coupled PDE/AK bioluminescent assay, PDE4B inhibition
Format: biochemical
Conditions: PDE4B catalytic domain
From the text: We developed a novel coupled PDE/AK bioluminescent high-throughput assay to measure the activity of phosphodiesterases. In the PDE/AK assay, the AMP produced from the hydrolysis of cAMP by phosphodiesterase is converted to adenosine diphosphate (ADP) by the phosphotransferase activity of adenylate kinase (also known as ADK or myokinase). Adenylate kinase will catalyze the conversion of 1 mole of AMP and 1 mole of ATP into 2 moles of ADP. Thus the conversion of AMP to ADP will result in the subsequent loss of ATP. The decrease in ATP concentration can be monitored as light output using luciferase in a reaction that requires ATP to produce light. The PDE/AK assay uses luciferase, which catalyzes the production of light from ATP present in the reaction mix. The amount of emitted light is inversely proportional to the level of AMP present in the reaction. Test compounds are incubated with the phosphodiesterases and phosphodiesterase inhibitors will decrease the rate of cAMP hydrolysis and decrease the subsequent production of AMP.
A novel coupled PDE/AK assay was utilized to measure the inhibitory activity of compounds on PDE isoforms. The catalytic domain of PDE4B was fused to an amino-terminus hex-histidine affinity tag and purified. PDE4B enzyme was incubated with compounds for 10 minutes. Cyclic AMP substrate, ATP and adenylate kinase were then added to the PDE enzyme mix and incubated for 45 minutes at room temperature. A commercial ATP detection assay, Perkin Elmer's easyLite ATP detection reagent, was then added to measure the relative amount of ATP present in the reaction. After 10 minute incubation, the luminescent signal was quantitated with either the Perkin Elmer Viewlux or Molecular Devices Acquest or Analyst.

T1 sequence (Q07343 330-659 limits assumed, species assumed): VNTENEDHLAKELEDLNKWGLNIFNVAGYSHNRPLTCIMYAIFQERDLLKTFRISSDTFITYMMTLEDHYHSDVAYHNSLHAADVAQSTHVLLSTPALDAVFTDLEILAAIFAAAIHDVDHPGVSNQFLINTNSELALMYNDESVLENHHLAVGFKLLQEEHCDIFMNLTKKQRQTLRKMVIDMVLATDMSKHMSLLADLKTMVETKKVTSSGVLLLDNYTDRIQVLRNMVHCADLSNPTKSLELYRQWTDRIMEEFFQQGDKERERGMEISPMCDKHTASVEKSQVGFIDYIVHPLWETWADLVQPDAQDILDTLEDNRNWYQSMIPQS

Row | IC50 | Compound
1 | > 1000 nM | COc1ccc2c(Nc3c(Cl)cncc3Cl)c(CCO)c(=O)oc2c1OC1CCCC1 [Example 82, 8-(Cyclopentyloxy)-4-(3,5-dichloropyridin-4-ylamino)-3-(2-hydroxyethyl)-7-methoxy-2H-chromen-2-one]
2 | < 1000 nM | COc1ccc2c(Nc3c(Cl)cncc3Cl)cc(=O)oc2c1OCCCCCCCCN(C)C [Example 81, 4-(3,5-Dichloropyridin-4-ylamino)-8-(8-(dimethylamino)octyloxy)-7-methoxy-2H-chromen-2-one]
3 | < 1000 nM | COc1ccc2c(Nc3c(Cl)cncc3Cl)cc(=O)oc2c1OCC(=O)NO [Example 88, 2-(4-(3,5-Dichloropyridin-4-ylamino)-7-methoxy-2-oxo-2H-chromen-8-yloxy)-N-hydroxyacetamide]
4 | < 1000 nM | CCOC(=O)CCCOc1c(OC)ccc2c(Nc3c(Cl)cncc3Cl)cc(=O)oc12 [Example 36, Ethyl 4-(4-(3,5-dichloropyridin-4-ylamino)-7-methoxy-2-oxo-2H-chromen-8-yloxy)butanoate]
5 | < 1000 nM | COc1ccc2c(Nc3c(Cl)cncc3Cl)cc(=O)oc2c1O [Example 29, 4-(3,5-Dichloropyridin-4-ylamino)-8-hydroxy-7-methoxy-2H-chromen-2-one]
6 | > 1000 nM | COc1ccc2c(NCC(N)=O)cc(=O)oc2c1OC1CCCC1 [Example 9, 2-(8-(Cyclopentyloxy)-7-methoxy-2-oxo-2H-chromen-4-ylamino)acetamide]
7 | < 1000 nM | CCCN(C)CCCCCOc1c(OC)ccc2c(Nc3c(Cl)cncc3Cl)cc(=O)oc12 [Example 89, 4-(3,5-Dichloropyridin-4-ylamino)-7-methoxy-8-(5-(methyl(propyl)amino)pentyloxy)-2H-chromen-2-one]
8 | < 1000 nM | COc1ccc2c(Nc3c(Cl)cncc3Cl)cc(=O)oc2c1OCc1ccc([N+](=O)[O-])cc1 [Example 35, 4-(3,5-Dichloropyridin-4-ylamino)-7-methoxy-8-(4-nitrobenzyloxy)-2H-chromen-2-one]
9 | < 1000 nM | CCCCN(C)CCCCCOc1c(OC)ccc2c(Nc3c(Cl)cncc3Cl)cc(=O)oc12 [Example 90, 8-(5-(Butyl(methyl)amino)pentyloxy)-4-(3,5-dichloropyridin-4-ylamino)-7-methoxy-2H-chromen-2-one]
10 | < 1000 nM | CNP(=O)(NC)OCCCCCOc1c(OC)ccc2c(Nc3c(Cl)cncc3Cl)cc(=O)oc12 [Example 105]
11 | < 1000 nM | COc1ccc2c(Nc3c(Cl)cncc3Cl)cc(=O)oc2c1OCCCCCN1CCCC1 [Example 55, 4-(3,5-Dichloropyridin-4-ylamino)-7-methoxy-8-(5-(pyrrolidin-1-yl)pentyloxy)-2H-chromen-2-one]
12 | < 1000 nM | CCc1c(Nc2c(Cl)cncc2Cl)c2ccc(OC)c(OCC3CC3)c2oc1=O [Example 6, 8-(Cyclopropylmethoxy)-4-(3,5-dichloropyridin-4-ylamino)-3-ethyl-7-methoxy-2H-chromen-2-one]
13 | < 1000 nM | CCOC(=O)CCCCCOc1c(OC)ccc2c(Nc3c(Cl)cncc3Cl)cc(=O)oc12 [Example 38, Ethyl 6-(4-(3,5-dichloropyridin-4-ylamino)-7-methoxy-2-oxo-2H-chromen-8-yloxy)hexanoate]
14 | < 1000 nM | COc1ccc2c(Nc3c(Cl)cncc3Cl)cc(=O)oc2c1OC[C@@H]1OC(=O)[C@@H](O)[C@H]1O [Example 51, 4-(3,5-Dichloropyridin-4-ylamino)-8-(((2S,3R,4S)-3,4-dihydroxy-5-oxotetrahydrofuran-2-yl)methoxy)-7-methoxy-2H-chromen-2-one]
15 | < 1000 nM | COc1ccc2c(Nc3c(Cl)cncc3Cl)cc(=O)oc2c1OCC(N)=O [Example 56, 2-(4-(3,5-Dichloropyridin-4-ylamino)-7-methoxy-2-oxo-2H-chromen-8-yloxy)acetamide]
16 | < 1000 nM | COc1ccc2c(Nc3c(Cl)cncc3Cl)cc(=O)oc2c1OCCCCCN1CCOCC1 [Example 53, 4-(3,5-Dichloropyridin-4-ylamino)-7-methoxy-8-(5-morpholinopentyloxy)-2H-chromen-2-one]
17 | < 1000 nM | COc1ccc2c(Nc3c(Cl)cncc3Cl)cc(=O)oc2c1OCCCCCOC(C)=O [Example 61, 5-(4-(3,5-Dichloropyridin-4-ylamino)-7-methoxy-2-oxo-2H-chromen-8-yloxy)pentyl acetate]
18 | < 1000 nM | COc1ccc2c(Nc3c(Cl)cncc3Cl)cc(=O)oc2c1OCCCCCNC(=N)N [Example 83, 1-(5-(4-(3,5-Dichloropyridin-4-ylamino)-7-methoxy-2-oxo-2H-chromen-8-yloxy)pentyl)guanidine]
19 | < 1000 nM | COc1ccc2c(Nc3c(Cl)cncc3Cl)cc(=O)oc2c1OC[C@@H]1OC(=O)[C@H]2OC(C)(C)O[C@@H]12 [Example 50, 4-(3,5-Dichloropyridin-4-ylamino)-8-(((3aS,4S,6aS)-2,2-dimethyl-6-oxotetrahydrofuro[3,4-d][1,3]dioxol-4-yl)methoxy)-7-methoxy-2H-chromen-2-one]
20 | < 1000 nM | COc1ccc2c(Nc3c(Cl)cncc3Cl)cc(=O)oc2c1OCCCCCN [Example 68, 8-(5-Aminopentyloxy)-4-(3,5-dichloropyridin-4-ylamino)-7-methoxy-2H-chromen-2-one]
21 | < 1000 nM | COc1ccc2c(Nc3c(Cl)cncc3Cl)cc(=O)oc2c1OCCCCCn1cnnn1 [Example 102, 8-(5-(1H-Tetrazol-1-yl)pentyloxy)-4-(3,5-dichloropyridin-4-ylamino)-7-methoxy-2H-chromen-2-one]
22 | < 1000 nM | CCOC(=O)CCCCOc1c(OC)ccc2c(Nc3c(Cl)cncc3Cl)cc(=O)oc12 [Example 37, Ethyl 5-(4-(3,5-dichloropyridin-4-ylamino)-7-methoxy-2-oxo-2H-chromen-8-yloxy)pentanoate]
23 | < 1000 nM | COc1ccc2c(Nc3c(Cl)cncc3Cl)cc(=O)oc2c1OCCCCCCC(=O)O [Example 65, 7-(4-(3,5-Dichloropyridin-4-ylamino)-7-methoxy-2-oxo-2H-chromen-8-yloxy)heptanoic acid]
24 | < 1000 nM | COc1ccc2c(Nc3c(Cl)cncc3Cl)cc(=O)oc2c1OC(C)C [Example 21, 4-(3,5-Dichloropyridin-4-ylamino)-8-isopropoxy-7-methoxy-2H-chromen-2-one]

More lines, now with the values behind:

Row | Compound | IC50
25 | COc1ccc2c(Nc3c(Cl)cncc3Cl)cc(=O)oc2c1OCCCCCn1nccn1 [Example 99, 8-(5-(2H-1,2,3-Triazol-2-yl)pentyloxy)-4-(3,5-dichloropyridin-4-ylamino)-7-methoxy-2H-chromen-2-one] | < 1000 nM
26 | COc1ccc2c(Nc3c(Cl)cncc3Cl)cc(=O)oc2c1OCC(=O)O [Example 49, 2-(4-(3,5-Dichloropyridin-4-ylamino)-7-methoxy-2-oxo-2H-chromen-8-yloxy)acetic acid] | > 1000 nM
27 | COc1ccc2c(N[C@H]3CC[C@@H](C(=O)O)CC3)cc(=O)oc2c1OC1CCCC1 [Example 39, cis-4-(8-(Cyclopentyloxy)-7-methoxy-2-oxo-2H-chromen-4-ylamino)cyclohexanecarboxylic acid] | > 1000 nM
28 | COc1ccc2c(Nc3c(Cl)cncc3Cl)cc(=O)oc2c1OCCCCOC(C)=O [Example 86, 4-(4-(3,5-Dichloropyridin-4-ylamino)-7-methoxy-2-oxo-2H-chromen-8-yloxy)butyl acetate] | < 1000 nM
29 | COc1ccc2c(Nc3c(Cl)cncc3Cl)cc(=O)oc2c1OCCCBr [Example 30, 8-(3-Bromopropoxy)-4-(3,5-dichloropyridin-4-ylamino)-7-methoxy-2H-chromen-2-one] | < 1000 nM
30 | COc1ccc2c(Nc3c(Cl)ccc(C)c3Cl)cc(=O)oc2c1OC1CCCC1 [Example 16, 8-(Cyclopentyloxy)-4-(2,6-dichloro-3-methylphenylamino)-7-methoxy-2H-chromen-2-one] | > 1000 nM
31 | COc1ccc2c(Nc3c(Cl)cncc3Cl)cc(=O)oc2c1OCCCCN(C)C [Example 27, 4-(3,5-Dichloropyridin-4-ylamino)-8-(4-(dimethylamino)butoxy)-7-methoxy-2H-chromen-2-one] | < 1000 nM
32 | COC(=O)CCCCCOc1c(OC)ccc2c(N(C)c3c(Cl)cncc3Cl)cc(=O)oc12 [Example 59, Methyl 6-(4-((3,5-dichloropyridin-4-yl)(methyl)amino)-7-methoxy-2-oxo-2H-chromen-8-yloxy)hexanoate] | > 1000 nM
33 | COc1ccc2c(Nc3c(Cl)cncc3Cl)cc(=O)oc2c1OCC(C)C [Example 23, 4-(3,5-Dichloropyridin-4-ylamino)-8-isobutoxy-7-methoxy-2H-chromen-2-one] | < 1000 nM
34 | COc1ccc2c(Nc3c(Cl)cncc3Cl)cc(=O)oc2c1OCCCCO [Example 73, 4-(3,5-Dichloropyridin-4-ylamino)-8-(4-hydroxybutoxy)-7-methoxy-2H-chromen-2-one] | < 1000 nM
35 | COc1ccc2c(Nc3c(Cl)cncc3Cl)cc(=O)oc2c1OCCCCCC#N [Example 57, 6-(4-(3,5-Dichloropyridin-4-ylamino)-7-methoxy-2-oxo-2H-chromen-8-yloxy)hexanenitrile] | < 1000 nM
36 | CCOC(=O)COc1c(OC)ccc2c(Nc3c(Cl)cncc3Cl)cc(=O)oc12 [Example 46, Ethyl 2-(4-(3,5-dichloropyridin-4-ylamino)-7-methoxy-2-oxo-2H-chromen-8-yloxy)acetate] | < 1000 nM
37 | COc1ccc2c(Nc3c(Cl)cncc3Cl)cc(=O)oc2c1OCCCCCN1CCN(C)CC1 [Example 52, 4-(3,5-Dichloropyridin-4-ylamino)-7-methoxy-8-(5-(4-methylpiperazin-1-yl)pentyloxy)-2H-chromen-2-one] | < 1000 nM
38 | COc1ccc2c(Nc3c(Cl)cncc3Cl)c(C)c(=O)oc2c1OC1CCCC1 [Example 13, 8-(Cyclopentyloxy)-4-(3,5-dichloropyridin-4-ylamino)-7-methoxy-3-methyl-2H-chromen-2-one] | < 1000 nM
39 | COc1ccc2c(Nc3c(Cl)cncc3Cl)cc(=O)oc2c1OCCCCCCCN(C)C [Example 80, 4-(3,5-Dichloropyridin-4-ylamino)-8-(7-(dimethylamino)heptyloxy)-7-methoxy-2H-chromen-2-one] | < 1000 nM
40 | COc1ccc2c(Nc3c(Cl)cncc3Cl)cc(=O)oc2c1OCCCCCN(C)CCCN(C)C [Example 92, 4-(3,5-Dichloropyridin-4-ylamino)-8-(5-((3-(dimethylamino)propyl)(methyl)amino)pentyloxy)-7-methoxy-2H-chromen-2-one] | < 1000 nM

Source: US7745646B2, “Bicyclic heteroaryl inhibitors of PDE4” (Kalypsys, Inc., priority 2006, dated 2010)
